The results in this text go back to patent US20260137820A1, “TRIFUNCTIONAL COMPOUND AND USE THEREOF” (PEKING UNIVERSITY, priority 2022, published 2026).

The subject of data set [1] is HT-1080-FAP tumor. Description: ^225Ac radionuclide therapy experiment in tumor mouse model. Type of data set: in vivo. The note with it: ^225Ac-labeled, treatment on day 0 and day 4, same or higher dose; vs normal saline or FAPI-04 control group. How it is done:
(§1) When the average tumor size reached about 100 mm^3, HT-1080-FAP tumor mice in the same batch were randomly divided into five groups, with n=7 or 8 in each group. Two rounds of treatment were then carried out on day 0 and day 4. […] The tumor size and weight of the mice were monitored every 2 or 3 days.

Data set [2] relates to HT-1080-FAP tumor. In words: ^177Lu radionuclide therapy experiment in tumor mouse model. Type of data set: in vivo. As to conditions: ^177Lu-labeled, treatment on day 0 and day 4, same or higher dose; vs normal saline or FAPI-04 control group. The procedure:
as §1

In another data set the test system is FAP, DPP-4 and PREP. Description: Binding selectivity to homologous proteins (competitive inhibition of enzyme substrate, IC50). The note with it: from IC50 values, pNA release. Type of data set: biochemical. The procedure:
Taking FAP target as an example, homologous proteins thereof include, but are not limited to, DPP-4 and PREP. The structural similarity thereof may lead to a decreased binding selectivity of the modified precursor molecules for the homologous proteins, resulting in an increased uptake in non-target organs.
The binding selectivity for homologous proteins was determined by a competitive inhibition experiment on the substrate of the enzymes, and the binding/inhibition selectivity thereof is indirectly evaluated by the median inhibitory concentration (IC50) values obtained.
By reference to the method described in Extended Structure-Activity Relationship and Pharmacokinetic Investigation of (4-Quinolinoyl)glycyl-2-cyanopyrrolidine Inhibitors of Fibroblast Activation Protein (FAP). Journal of Medicinal Chemistry 57, 3053-3074 (2014), published by Jansen et al., the initial rate of p-nitroaniline (pNA) released from the substrate (absorption at 405 nm) was measured by using a microplate reader (PerkinElmer, Victor™ X5) at 37° C. in a final volume of 200 μL to determine the kinetic properties of the enzyme activity. […]
The determination method for IC50 on FAP is as follows: the substrate Z-Gly-Pro-p-nitroanilide (50 μM, Cat #G-58468, HEOWNS) was used to measure FAP activity at pH 7.4. […] The mixture was then incubated at 37° C. for 6 hours, and the release of pNA was then measured. […]

Data set [3] deals with HT-1080-FAP tumor. In words: PET/CT imaging in HT-1080-FAP tumor-bearing mouse model. Type of data set: in vivo. As to conditions: ^68Ga label, 18.5 MBq via tail vein, p<0.005. The procedure: Mouse model: Nu/Nu mice (SPF grade) were purchased from Beijing Charles River Laboratories (China) and injected subcutaneously with HT-1080-FAP cells to construct a tumor model with high FAP expression.
(§2) All PET/CT scans were carried out on Mediso nanoScan® PET 122S small animal PET/CT.
After a certain number of HT-1080-FAP tumor mice were taken and injected via the tail vein with 7.4-18.5 MBq of ^68Ga/^86Y-FAPI-04 (control) and ^68Ga/^86Y-FAPI-CB series molecules at specified time points (Note: the injection of the control and investigation molecules was separated apart by at least five half-lives of the nuclide to ensure that the radioactivity of the previous probe had almost completely decayed and was essentially completely metabolized), imaging was carried out at specified time points. In some examples, the mice were anesthetized and then sacrificed by neck breaking at a certain time point. Organs were dissected and taken for radioactivity measurement.
A ^68Ge-^68Ga generator was eluted with 5 mL of 0.6 M high-purity hydrochloric acid to obtain a Ga-68 hydrochloric acid solution. 1 mL of the Ga-68 solution after elution was taken, and 100 μL of 3 M sodium hydroxide and 130 μL of 3M sodium acetate were added to adjust the acidity to a final pH of 4.0. 12 μg of FAPI-CB-00 compound was added, and the reaction mixture was heated to 70° C. and maintained for 20 min. […]

Another data set has as its system Daudi tumor. Description: PET/CT imaging in tumor mouse model with high CXCR4 expression. Type of data set: in vivo. The note with it: 7.4-18.5 MBq i.v., 2 hours, p<0.05. The procedure: as §2
(§3) A certain number (n=4) of Daudi tumor mice (for the construction method, see the method in PET Imaging of CXCR4 Receptors in Cancer by a New Optimized Ligand, published by Oliver Demmer et al.) were taken and intravenously injected at specified time points with 7.4-18.5 MBq of ^68Ga-pentixafor (as a control, the labeled precursor is readily commercially available, and the structure is specifically disclosed) and ^68Ga-CXCR4-CB-03 molecules (Note: the injection of the control and investigation molecules was separated apart by at least 12 hours until the previous ^68Ga molecule essentially completely decayed and was essentially completely metabolized). Imaging was carried at the time point of 2 hours, and the SUVmax value in tumor was obtained by a software.

The subject of another data set is AR42J tumor. In words: PET/CT imaging in tumor mouse model with high SSTR2 expression. Type of data set: in vivo. As to conditions: 7.4-18.5 MBq i.v., 2 hours, p<0.05. The procedure: as §2
as §3, with “AR42J” for “Daudi”, “Combination radionuclide therapy using ^177Lu-and ^90Y-labeled somatostatin analogs,” for “PET Imaging of CXCR4 Receptors in Cancer by a New Optimized Ligand,”, “Marion de Jong” for “Oliver Demmer”, “^68Ga-DOTATATE” for “^68Ga-pentixafor”, “^68Ga-SSTR2-CB-02” for “^68Ga-CXCR4-CB-03”

Each structure is given as a SMILES string. *1 amine or outer side, *2 acyl side, *3 side chain or, on linkers, in order; H or OH if unused. Where a SMILES comes first, the peptide text is derived from it. Side-chain parts run from the residue outwards. [ ]: non-standard residue; d: D form. The star is where a group is joined. DOTA = O=C(O)CN1CCN(CC(=O)O)CCN(CC(=O)*)CCN(CC(=O)O)CC1; X1 = O=C([C@@H](Cc1ccc(OS(=O)(=O)F)cc1)N[*:1])[*:2]; 2Nal = N[C@@H](Cc1ccc2ccccc2c1)C(=O)O; dNMeOrn = CN[C@H](CCCN)C(=O)O; 4Amb = NCc1ccc(C(=O)O)cc1

For `N#C[C@@H]1CC(F)(F)CN1C(=O)CNC(=O)c1ccnc2ccc(OCCCN3CCN(C(=O)[C@H](CCCCNC(=O)c4cccc(OS(=O)(=O)F)c4)NC(=O)CN4CCN(CC(=O)O)CCN(CC(=O)O)CCN(CC(=O)O)CC4)CC3)cc12` [FAPI-CB-02], the tumor inhibition effect entry with HT-1080-FAP tumor [1] and in the data set with HT-1080-FAP tumor [2] was “significantly better tumor inhibition effect” each time. Further, the “selectivity to FAP protein over homologous proteins DPP-4 and PREP” value in the data set on FAP, DPP-4 and PREP is recorded as “high selectivity”. Also, the “improvement of maximum standard tumor uptake value (SUVmax) compared with FAPI-04” value in the data set with HT-1080-FAP tumor [3] is reported as roughly 4 times.

For the molecule `CN1C(=O)[C@@H](Cc2ccc(OS(=O)(=O)F)cc2)NC(=O)CNC(=O)[C@H](Cc2ccc3ccccc3c2)NC(=O)[C@H](CCCNC(=N)N)NC(=O)[C@H]1CCCNC(=O)c1ccc(CNC(=O)CN2CCN(CC(=O)O)CCN(CC(=O)O)CCN(CC(=O)O)CC2)cc1` [^68Ga-CXCR4-CB-03, metal not drawn] (cyclo([2Nal]G[X1][dNMeOrn]([4Amb-DOTA])R)), the “drug tumor uptake (SUVmax) compared with ^68Ga-pentixafor” value with Daudi tumor is “significantly higher”.

For the molecule `C[C@@H](O)[C@H](NC(=O)[C@@H]1CSSC[C@H](NC(=O)[C@@H](Cc2ccccc2)NC(=O)CN2CCN(CC(=O)O)CCN(CC(=O)O)CCN(CC(=O)O)CC2)C(=O)N[C@@H](Cc2ccc(OS(=O)(=O)F)cc2)C(=O)N[C@H](Cc2c[nH]c3ccccc23)C(=O)N[C@@H](CCCCN)C(=O)N[C@@H]([C@@H](C)O)C(=O)N1)C(=O)O` [^68Ga-SSTR2-CB-02, metal not drawn], in the data set with AR42J tumor, the “drug tumor uptake (SUVmax) compared with ^68Ga-DOTATATE” value is “significantly higher”.
